Values joined by “and” are separate entries in the source; they are usually repeats but may differ in a detail not shown here. Identical values can stand only once.
Assay: Dog PK study #3 (Compound A PO once daily 5 days, 5/10/20 mg/kg; PK, body weight, hematology)
Type: in vivo, beagle dogs
Set-up: Plasma Concentration: unit not given here
Settings: for Neutrophils: range 1.80-10.83; for White Blood Cells: range 4.81-15.67; for Platelets: range 127-393; for Accumulative Index of AUC0-last (Day 5/Day 1) / Accumulative Index of Cmax (Day 5/Day 1): PO
Description: For the third dog pharmacokinetic study, three solutions of different concentrations of Compound A were prepared in 5% DMSO/15% PEG-400/80% (10% VE-TPGS) as outlined in Table 2E. The Compound A solutions were administered to animals orally (PO) once daily over a five-day period. Body weight was recorded prior to dosing, and detailed clinical observations were made prior to dosing and throughout the study, as needed.
Animals were divided into Day 1 and Day 5 sample collection groups, with animals in the Day 1 collection group having blood samples taken prior to dosing and at 0.25, 0.5, 1, 2, 4, 8, and 24 hours after dosing on day 1. Animals in the Day 5 collection group having blood samples taken prior to dosing and at 0.25, 0.5, 1, 2, 4, 8, and 24 hours after dosing on day 5. Study groups are outlined in Table 3D.
Blood samples (~0.3 mL) were collected on day according to the following schedule (0.25, 0.5, 1, 2, 4, 8, and 24 h) after day 5 administration of Compound A by venipuncture of peripheral veins except for the dosing vein, and EDTA-K2 was used as anticoagulant. Within 30 minutes of collection, the samples were centrifuged at approximately 2000 times g-force for 10 minutes at 4° C. to obtain blood plasma. The plasma samples were immediately divided into two aliquots (~75 μL each), transferred to a cryogenic vial, and stored in a freezer at −75±15° C. prior to analysis.
The concentration of Compound A in the blood plasma was determined through LC-MS as previously described. Briefly, the experiments were conducted on a DMPK-LCMS-14-SMBA Triple Quad 6500 Plus instrument with an ACQUITY UPLC BEH C18 1.7 μm (50×2.1 mm) column. The matrix was male beagle dog plasma potassium (K2) EDTA A gradient of 95% water (0.1% formic acid and 2 mM HCOONH4)/95% acetonitrile (0.1% formic acid and 2 mM HCOONH4) was used as the mobile phase. The sample flow rate was 0.6 mL/min.
The samples were then vortex-mixed for 10 minutes at 800 rpm and centrifuged for 15 minutes at 3220×g at 4° C. 50 μL aliquots of supernatant were transferred to a clean 96-well plate and centrifuged for 5 minutes at 3220×g at 4° C. Samples were then injected into the LC/MS/MS system for quantitative analysis.
The gathered data were used for pharmacokinetic calculations using T1/2, CO, AUClast, AUCinf, MRTinf, Cl, Vss, and Number of Points for Regression as parameters.
The cell composition (hematology) of blood samples was analyzed at day 5. Analyses identified the total number of white blood cells, neutrophils, lymphocytes, monocytes, eosinophils, basophils, and platelets in collected samples.

[1] = Day 5, 10 mg/kg dose PO, individual animals
[2] = Day 5, 20 mg/kg dose PO, individual animals
[3] = Day 5, Group 1, individual animals
[4] = Day 5, Group 2, individual animals
[5] = Day 5, Group 3, individual animals

## Cn1cc(-c2ccccc2)c(-c2cn(C)c(=O)c3[nH]c(-c4cnn(C(F)(F)F)c4)cc23)cc1=O [Compound A, 6-methyl-4-(1-methyl-2-oxo-5-phenyl-1,2-dihydropyridin-4-yl)-2-(1-(trifluoromethyl)-1H-pyrazol-4-yl)-1,6-dihydro-7H-pyrrolo[2,3-c]pyridin-7-one]
Day 5, 5 mg/kg/day (mean)
  Neutrophils: 7.08 10^3/μL
  White Blood Cells: 10.59 103/μL
  Platelets: 224.0 10^3/μL
Day 5, 10 mg/kg dose PO, time 1, individual animals
  Plasma Concentration: 1610 and 2220
Day 5, 10 mg/kg dose PO, time 1, mean
  Plasma Concentration: 1915
Day 5, 10 mg/kg dose PO, time 2, individual animals
  Plasma Concentration: 1740 and 2780
Day 5, 10 mg/kg dose PO, time 2, mean
  Plasma Concentration: 2260
Day 5, 10 mg/kg dose PO, time 4, individual animals
  Plasma Concentration: 1460 and 2310
Day 5, 10 mg/kg dose PO, time 4, mean
  Plasma Concentration: 1885
Day 5, 10 mg/kg dose PO, time 8, individual animals
  Plasma Concentration: 1190 and 1940
Day 5, 10 mg/kg dose PO, time 8, mean
  Plasma Concentration: 1565
[1]
  AUC0-last: 36.083 µg·h/mL
  AUC(0-inf): 45.289 µg·h/mL
  AUCExtra: 10.6% and 20.3%
  AUMCExtra: 32.6% and 51.3%
  Cl_F: 7.25 mL/min/kg and 3.68 mL/min/kg
  Cmax: 2780 ng/mL
  MRT0-inf: 15.4 h
  MRT0-last: 9.39 h
  Tlast: 24.0 h
  T½: 10.3 h
  Vz_F: 4.58 L/kg and 3.27 L/kg
Day 5, 10 mg/kg dose PO, mean
  AUC0-last: 28.307 µg·h/mL
  AUCExtra: 15.5%
  AUMCExtra: 42.0%
  Cl_F: 5.47 mL/min/kg
  Tlast: 24.0 h
  Vz_F: 3.92 L/kg
Day 5, 10 mg/kg/day (mean), range 0.00-0.19
  Basophils: 0.07 10^3/μL
Day 5, 10 mg/kg/day (mean), range 0.00-1.24
  Eosinophils: 0.40 10^3/μL
Day 5, 10 mg/kg/day (mean), range 0.11-1.08
  Monocytes: 0.48 10^3/μL
Day 5, 10 mg/kg/day (mean), range 1.42-3.76
  Lymphocytes: 3.31 10^3/μL
Day 5, 10 mg/kg/day (mean)
  Neutrophils: 6.59 10^3/μL
  White Blood Cells: 10.86 103/μL
  Platelets: 273.0 10^3/μL
Day 5, 20 mg/kg dose PO, time 1, individual animals
  Plasma Concentration: 3150 and 2130
Day 5, 20 mg/kg dose PO, time 1, mean
  Plasma Concentration: 2640
Day 5, 20 mg/kg dose PO, time 2, individual animals
  Plasma Concentration: 3510 and 2220
Day 5, 20 mg/kg dose PO, time 2, mean
  Plasma Concentration: 2865
Day 5, 20 mg/kg dose PO, time 4, individual animals
  Plasma Concentration: 3160 and 2040
Day 5, 20 mg/kg dose PO, time 4, mean
  Plasma Concentration: 2600
Day 5, 20 mg/kg dose PO, time 8, individual animals
  Plasma Concentration: 2430 and 2170
Day 5, 20 mg/kg dose PO, time 8, mean
  Plasma Concentration: 2300
[2]
  AUC0-last: 43.537 µg·h/mL and 16.801 µg·h/mL
  AUC(0-inf): 49.399 µg·h/mL and 2087.5 µg·h/mL
  AUCExtra: 11.9% and 99.2%
  AUMCExtra: 35.5% and 100%
  Cl_F: 6.75 mL/min/kg and 0.160 mL/min/kg
  Cmax: 2220 ng/mL
  MRT0-inf: 11.7 h and 955 h
  MRT0-last: 8.57 h and 4.03 h
  Tlast: 24.0 h and 8.00 h
  T½: 7.64 h
  Vz_F: 4.46 L/kg and 9.29 L/kg
Day 5, 20 mg/kg dose PO, mean
  AUC0-last: 30.169 µg·h/mL
  AUCExtra: 55.6%
  AUMCExtra: 67.8%
  Cl_F: 3.45 mL/min/kg
  Vz_F: 6.87 L/kg
[3]
  Animal body weight: 8.22 kg and 9.18 kg
  Clinical Observation: None
Day 5, Group 1, mean
  Animal Body Weight, Mean: 8.70 kg
[4]
  Animal body weight: 9.31 kg and 8.43 kg
  Clinical Observation: None
Day 5, Group 2, mean
  Animal Body Weight, Mean: 8.87 kg
[5]
  Animal body weight: 8.88 kg and 8.11 kg
  Clinical Observation: None
Day 5, Group 3, mean
  Animal Body Weight, Mean: 8.50 kg
Dose level 5.00 mg/kg
  Accumulative Index of AUC0-last (Day 5/Day 1): 1.53
  Accumulative Index of Cmax (Day 5/Day 1): 1.57
Dose level 10.0 mg/kg
  Accumulative Index of AUC0-last (Day 5/Day 1): 1.62
  Accumulative Index of Cmax (Day 5/Day 1): 1.31
Dose level 20.0 mg/kg
  Accumulative Index of AUC0-last (Day 5/Day 1): 0.445
  Accumulative Index of Cmax (Day 5/Day 1): 0.555
All doses administered
  time plasma concentration remained above the free EC50 BD2: 24 h
Day 5
  white blood cell fraction parameters: within range
male, beagle, dog, plasma, po, 5 mg/kg, Day 1, 5 mg/kg dose PO, individual animals
  AUC(0-t): 11.6 µg·h/mL

Reference: patent US20260217701A1, “SELECTIVE BET INHIBITORS AND USES THEREOF” (Tay Therapeutics Limited, priority 2022, published 2026)
